Values quoted from earlier work in article PMC6099957, “Mouse β-Defensin 3, A Defensin Inhibitor of Both Its Endogenous and Exogenous Potassium Channels” (Molecules : A Journal of Synthetic Chemistry and Natural …, 2018).
No end group written: not given here.

Test system: Kv1.3
Conditions: read-out: IC50 as Kv1.3 inhibitor; cited from earlier work
Text: Here, the Kv1.3 channel-sensitive hBD2 was used as the molecular template to search potential mouse β-defensin from the biological databases. […] Besides the sequence similarity, the distribution of six cysteine amino acid residues was also identical. In order to better understand the structural feature of mBD3, its structure was modeled by the tem ...

hBD1: human β-defensin, Kv1.3 channel blocker binding the pore region (DHYNCVSSGGQCLYSACPIFTKIQGTCYRGKAKCCK; ends and bridges not checked; cysteine pairing not given here; UniProt P60022 33-68, looked up)
IC50: 11.8 µM
